Paper PMC8789054, “The nucleotide messenger (p)ppGpp is an anti-inducer of the purine synthesis transcription regulator PurR in Bacillus” (Nucleic Acids Research, 2021)

Experiments:
[1] = target: T1, PurR (Bacillus subtilis, UniProt P37551); test: DRaCALA with […]-pppGpp; type: binding
T1 construct: untagged B. subtilis PurR

[2] = target: T1, PurR; test: X-ray co-crystal structure ([…] Å); DRaCALA with […]-ppGpp; type: binding
[3] = target: T2, PurR Y102A/F205A (Bacillus subtilis, UniProt P37551, Y102A/F205A); test: inhibition of PurR-DNA probe binding by PRPP (Supplementary Figure S15); type: biochemical
T2 sequence (P37551 1-285 Y102A/F205A): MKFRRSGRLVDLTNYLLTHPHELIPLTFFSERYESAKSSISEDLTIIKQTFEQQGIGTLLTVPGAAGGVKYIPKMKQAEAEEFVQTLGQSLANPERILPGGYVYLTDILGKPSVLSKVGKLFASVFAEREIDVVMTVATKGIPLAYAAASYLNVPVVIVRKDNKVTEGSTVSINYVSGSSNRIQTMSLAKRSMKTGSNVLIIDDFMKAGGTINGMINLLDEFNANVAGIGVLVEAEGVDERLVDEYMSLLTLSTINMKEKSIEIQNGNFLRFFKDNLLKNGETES

[4] = target: T3, PurR Y102A/K207A (Bacillus subtilis, UniProt P37551, Y102A/K207A); test: as above; type: biochemical
T3 sequence (P37551 1-285 Y102A/K207A): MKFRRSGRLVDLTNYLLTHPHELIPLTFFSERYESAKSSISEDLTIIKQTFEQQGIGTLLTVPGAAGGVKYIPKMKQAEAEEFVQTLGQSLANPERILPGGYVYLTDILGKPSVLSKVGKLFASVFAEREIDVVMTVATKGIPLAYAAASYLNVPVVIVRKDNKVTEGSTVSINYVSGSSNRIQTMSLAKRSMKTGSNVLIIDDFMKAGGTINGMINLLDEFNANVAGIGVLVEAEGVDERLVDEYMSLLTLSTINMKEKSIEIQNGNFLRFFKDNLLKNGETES

[5] = target: the molecule itself; test: crystal structure; untagged PurR at 20 mg/ml with 1 mM ppGpp, hanging drop vapor diffusion, 0.1 M MES pH 6.5, 18% PEG 1500, room temperature; space group P1, three PurR dimers in the asymmetric unit; 2.45 Å

Molecule: Nc1nc2c(ncn2[C@@H]2O[C@H](COP(=O)(O)OP(=O)(O)OP(=O)(O)O)[C@@H](OP(=O)(O)OP(=O)(O)O)[C@H]2O)c(=O)[nH]1 [pppGpp]
- Kd [1]: ~4.4 µM

Molecule: Nc1nc2c(ncn2[C@@H]2O[C@H](COP(=O)(O)OP(=O)(O)O)[C@@H](OP(=O)(O)OP(=O)(O)O)[C@H]2O)c(=O)[nH]1 [ppGpp]
- Kd [2]: ~4.4 µM

Molecule: O=P(O)(O)OC[C@H]1O[C@H](OP(=O)(O)OP(=O)(O)O)[C@H](O)[C@@H]1O [PRPP]
- inhibition of PurR-DNA probe binding by PRPP (Supplementary Figure S15) [3]: yet still bind to DNA probes and their binding to DNA is still inhibited by PRPP
- inhibition of PurR-DNA probe binding by PRPP (Supplementary Figure S15) [4]: yet still bind to DNA probes and their binding to DNA is still inhibited by PRPP

B1: Bacillus subtilis purine synthesis transcription regulator PurR (untagged) (natural protein, B. subtilis)
chain: MKFRRSGRLVDLTNYLLTHPHELIPLTFFSERYESAKSSISEDLTIIKQTFEQQGIGTLLTVPGAAGGVKYIPKMKQAEAEEFVQTLGQSLANPERILPGGYVYLTDILGKPSVLSKVGKLFASVFAEREIDVVMTVATKGIPLAYAAASYLNVPVVIVRKDNKVTEGSTVSINYVSGSSNRIQTMSLAKRSMKTGSNVLIIDDFMKAGGTINGMINLLDEFNANVAGIGVLVEAEGVDERLVDEYMSLLTLSTINMKEKSIEIQNGNFLRFFKDNLLKNGETES
notes: PurR, purine synthesis transcription regulator of Bacillus subtilis; Crystallised with 1 mM ppGpp; three dimers in the asymmetric unit; also called B. subtilis PurR; purine repressor PurR; source: E. coli BL21 T7 Express lacIq, purified (HisTrap FF, TEV cleavage, second HisTrap FF, Sephacryl S-200 gel filtration)
- binding result [5]: binds
